Measured values reported in US20250283050A1, “METHOD OF CANCER TREATMENT” (priority 2021, published 2025).

Legend:
[1] = tested on: colorectal cancers (CRC) tumor cells; assay: en bloc CRC culture: tumor cell death by PI-staining and FACS; format: cell-based, human
Protocol: (§1) To this end, en bloc colorectal cancers (CRC) or control non-tumor colon mucosal tissues from the same patients were incubated in RPMI based media and treated with DOX for 3 days. The effects of the treatment on tumor or normal cells were then determined by PI-staining and FACS analysis.
(§2) To this end, en bloc CRC tumor or control colon mucosal tissues were treated with DOX at low non-cytotoxic dosage and then co-cultured with TAMs transfected with Hom-1 or control GFP. After 5 days of co-culturing, the effects of the treatment on the survival of tumor or control normal epithelial cells were determined by PI staining and FACS analysis.
(§3) Tumor tissue were washed with 1×PBS buffer plus antibiotics and then cut into 0.5 cm pieces. Tissues were cultured in 2 mL of RPMI 1640 medium, supplemented with 2-10% FBS (Sigma) and 1% antibiotic-antimycotic solution (Gibco) in 24-well plate (Corning). The cultures were incubated at a 37° C., 5% CO2 incubator. […] To evaluate the effect of chemotherapeutic agents, chemo-reagents at indicated concentration or PBS was used instead of the anti-PD-1 antibody. For en bloc tissue and macrophage co-culture assay, 0.25×10^6 GFP-Hom-1 or control GFP transfected autologous macrophages of the same patient were added to the en bloc tissue culture wells. After gently shaking, the plate was incubated at 37° C., 5% CO2 for 3-5 days. The en bloc tissues were then subjected to single 1 cell isolation and analysis as described.
Single cell suspensions generated from en bloc tissue culture were washed with FACS staining solution (PBS plus 2% FBS), fixed and permeabilized (Invitrogen) and then stained with Ber-EP4 antibodies for normal epithelial cells and CK7, CK19 and CK20 for cancer cells for 30 minutes on ice. After washes with FACS staining solution, cells were stained with FITC-conjugated secondary antibodies for 30 minutes on ice. The cells were then washed with FACS staining solution and fixed in 2% paraformaldehyde in PBS for 30 min or overnight. The cells were washed and resuspended in 200 μL of FACS staining solution and 5 μL of PI staining solution (eBioscience/Fisher Scientific) were added in the solution for 15 minutes. Cell viability were then analyzed with a flow cytometry.

[2] = tested on: esophageal cancer; assay: en bloc tumor culture with chemotherapeutic agent and Hom-1-TAMs: esophageal cancer; format: cell-based; details: agent plus Hom-1-TAMs
Protocol: (§4) Besides CRC, Hom-1-TAMs reverse immune polarity of PDAC and NSCLC TME (data not shown). The effects of Hom-1-TAM on tumoricidal effects of DOX were further explored on other tumor types, such as PDAC, NSLC, esophageal cancer and stomach cancers.
(§5) Additional chemo-reagents used in this study are listed below.
as §3

[3] = tested on: non-small cell lung cancer (NSCLC); assay: en bloc tumor culture with chemotherapeutic agent and Hom-1-TAMs: NSCLC; format: cell-based; details: agent plus Hom-1-TAMs
Protocol: as §4, §5, §3

[4] = tested on: normal epithelial cells of colon mucosal tissues; assay: en bloc control colon mucosal tissue culture: normal epithelial cell death by PI-staining and FACS; format: cell-based, human; details: DOX 3 days
Protocol: as §1, §2
Tumor tissue were washed with 1×PBS buffer plus antibiotics and then cut into 0.5 cm pieces. Tissues were cultured in 2 mL of RPMI 1640 medium, supplemented with 2-10% FBS (Sigma) and 1% antibiotic-antimycotic solution (Gibco) in 24-well plate (Corning). The cultures were incubated at a 37° C., 5% CO2 incubator. […]
Single cell suspensions generated from en bloc tissue culture were washed with FACS staining solution (PBS plus 2% FBS), fixed and permeabilized (Invitrogen) and then stained with Ber-EP4 antibodies for normal epithelial cells and CK7, CK19 and CK20 for cancer cells for 30 minutes on ice. […] Cell viability were then analyzed with a flow cytometry.

[5] = tested on: NFκB binding to Hom-1 promoter; assay: ChIP assay of NFκB at Hom-1 promoter; format: cell-based; details: human monocytes, 1 μM DOX, 24 hours
Protocol: Human monocytes were treated with 1 μM DOX or PBS control for 24 hours and harvested for ChIP assay. The ChIP procedure was performed with a kit from Upstate biotechnology following the manufacturer's instructions. The NFκB p65 antibody (Cell Signaling Technology, Cat# 8242) was used for the immunoprecipitation. The Rabbit IgG antibody was served as a negative control. The Hom-1 promotor region containing a putative NFκB binding site was amplified with specific primers 5′-[…]-3′ and 5′-[…]-3′. All PCR products were separated on 1% agarose gel and visualized by ethidium bromide staining.

[6] = tested on: NFκB; assay: NF-κB activation assay in monocytes; format: cell-based; details: primary human monocytes; 24 hour
Protocol: To determine whether NFκB plays a role in DOX activation of Hom-1 expression in monocytes, the effects of DOX on NFκB expression in primary monocytes were determined.
Human monocytes were treated with DOX at indicated concentration or PBS control. After 24 hour of treatment, the nuclear extracts were prepared using a nuclear extract kit (Active Motif, Cat. 40010). The DNA-binding activity of NF-κB p65 was determined using the TransAm assays (Active Motif, Cat. 40097) according to the manufacturer's instructions. Briefly, 2.5 μg nuclear extracts of each sample were incubated with immobilized NF-κB-specific oligonucleotides for 1 hr. The p65 protein bound to DNA was then visualized by incubation with p65-specific antibody, HRP-conjugated secondary antibody and developing solution and measured with a microplate reader with the absorbance at 450 nm.

[7] = tested on: Hom-1 expression in TAMs; assay: DOX induction of Hom-1 expression; format: cell-based, human
Protocol: Total RNA was isolated by the TRIzol reagent (Life Technologies) and RNA amounts were measured by NanoDrop 2000 (Thermo Scientific). Equal amount of RNA was used for first-strand cDNA synthesis with SuperScript III First-Strand Synthesis System (Life Technologies) according to the manufacturer's protocol. The AccuPrime Taq DNA polymerase system (Life Technologies) was used to amplify Hom-1 cDNA with conventional PCR. Quantitative measurements of Hom-1 and other cDNA were carried out with SYBR Green, using a Mastercycler ep Gradient S (Eppendorf). GAPDH was used as a house keeping gene to normalize mRNA expression. Relative expression profiles of mRNAs were calculated using the comparative Ct method (DDCT method).
as §3, with “After gently shaking, the plate was incubated at 37° C., 5% CO2 for 3-5 days. The en bloc tissues were then subjected to single 1 cell isolation and analysis as described.” left out

[8] = tested on: TAMs and TIL in en bloc CRC; assay: en bloc CRC culture: DOX effects on TAM plasticity and TIL differentiation; format: cell-based, human
Source text: As DOX induces Hom-1 expression in TAMs in en bloc CRC culture (data not shown), this example illustrates the involvement of Hom-1 in mediating therapeutic effects of DOX.
Consistent with a key regulatory role of Hom-1 in mediating DOX effects on TAM plasticity and the immune landscape of TME, it was shown that knockdown of Hom-1 expression in TAMs attenuated DOX effects on the expression of M1 and M2 markers and inhibited DOX-induced secretion of pro-inflammatory cytokines (data not shown).
as §3

[9] = tested on: primary human CRC; assay: NSG-PDX model of primary human CRC; format: in vivo; details: low dosage DOX 1.5 mg/kg tail-vein, alone
Protocol: To this end, NSG-PDX models of primary human CRC were established according to established methods. One week post-implantation of primary CRC tumors, the mice were tail-vein injected with a low dosage of Hom-1-TAMs. Three days later, low dosage DOX at 1.5 mg/kg were given through tail-vein injection and the DOX injection were repeated after two weeks.
Animal models of primary human colon cancers were developed previously. Briefly, 8-week-old NOD. Cg-Prkdc^scid Il2rg^tm1Wjl/SzJ mice (commonly known as NOD scid gamma, or NSG mice) were purchased from the Jackson Laboratory and maintained under specific pathogen-free conditions. Tumors were cut into around 0.5 cm pieces and then surgically implanted into subcutaneous space in flank of NSG mice. After one week of implantation, 0.25×10^6 TAMs transfected with GFP-Hom-1 or control GFP were injected into the mice through tail vain. After three days, 1.5 mg/Kg of DOX or PBS control were tail-vain injected and then repeated after two weeks. The tumor growth was monitored twice weekly and measured by a caliper for 6 weeks. Tumor volumes were calculated according to the formula ½ (length×width^2).

[10] = tested on: stomach cancer; assay: en bloc tumor culture with chemotherapeutic agent and Hom-1-TAMs: stomach cancer; format: cell-based; details: agent plus Hom-1-TAMs
Protocol: as §4, §5, §3

[11] = tested on: PDAC; assay: en bloc tumor culture with chemotherapeutic agent and Hom-1-TAMs: PDAC; format: cell-based; details: agent plus Hom-1-TAMs
Protocol: as §4, §5, §3

[12] = en bloc CRC culture, agent alone, dose range

| Structure (SMILES) | cytocidal effects on tumor cells [1, 12] | tumoricidal effects promoted by Hom-1-TAMs ([1]; en bloc CRC culture, agent plus Hom-1-TAMs) | tumoricidal effects promoted by Hom-1-TAMs [2] | tumoricidal effects promoted by Hom-1-TAMs [3] | cytotoxic effects on normal epithelial cells [4] | interaction of NFκB with Hom-1 promoter [5] | NFκB expression [6] | Hom-1 expression ([7]; cancer cells and macrophages) | TAM Hom-1 expression ([7]; en bloc CRC culture) | CD4 T cell differentiation into Treg cells [8] | CD8 T cell activation [8] | TAM phenotype (M1/M2 markers and cytokines) [8] | cytocidal effects on tumor cells ([1]; en bloc CRC, DOX alone at non-cytotoxic concentration, 5 days) | inhibition of CRC tumorigenesis [9] | tumoricidal effects promoted by Hom-1-TAMs [10] | tumoricidal effects promoted by Hom-1-TAMs [11] |
| --- | --- | --- | --- | --- | --- | --- | --- | --- | --- | --- | --- | --- | --- | --- | --- | --- |
| O=c1[nH]cc(F)c(=O)[nH]1 [5-FU] | dosage-dependent cytocidal effects on tumor cells | promoted | – | – | – | – | – | – | – | – | – | – | – | – | – | – |
| N.N.[Cl][Pt][Cl] [Cisplatin] | – | – | promoted | promoted | – | – | – | – | – | – | – | – | – | – | – | – |
| COc1cccc2c1C(=O)c1c(O)c3c(c(O)c1C2=O)C[C@@](O)(C(=O)CO)C[C@@H]3O[C@H]1C[C@H](N)[C@H](O)[C@H](C)O1 [DOX, Doxorubicin] | dosage-dependent cytocidal effects on tumor cells | – | promotes tumoricidal function | promotes tumoricidal function | less cytotoxic effects on normal epithelial cells | promoted the interaction of NFκB with Hom-1 promoter | induces NFκB expression in primary human monocytes in a dosage dependent manner | potent inducer of Hom-1 expression both in cancer cells and in macrophages | induced TAM Hom-1 expression in the en bloc CRC culture in a dosage dependent manner | reduced CD4 T cell differentiation into Treg cells | increased CD8 T cell activation | shifted the population of TAMs from M2-like phenotype to M1-like phenotype | little cytocidal effects on tumor cells | small discernable inhibition on CRC tumorigenesis | promotes tumoricidal function | promotes tumoricidal function |
